In US9481871B2, “Nucleic acid encoding a polpeptide having aminotransferase activity, vectors and host cells comprising the nucleic acid” (KANEKA CORPORATION, priority 2010, dated 2016):
Read-outs that look alike come from different tables or passages of the source.

How the values were obtained:
TAT [1] = assay type: biochemical, Arthrobacter sp. KNK04-25
TAT [2] = test: Specificity 2 to amino group donor: typical substrates of ω-amino acid transaminase; assay type: biochemical, Arthrobacter sp. KNK04-25; details: amino group donor 14 mM, 2-ketoglutaric acid 14 mM; for activity of the polypeptide for amino group donor (in words): pH 7.0; for Relative activity: pH 7.0, 30° C., 60 minutes, (S)-1-phenethylamine = 100
Procedure: (§1) Each reagent was added to the enzyme solution (100 μL each) so that the final concentrations were as specified in the following composition of the substrate solution. The volume of each reaction solution was adjusted to 400 μl with 0.1 M potassium phosphate buffer (pH 7.0). After 60 minutes of reaction at 30° C., 20 μL of 3N hydrochloric acid was added to stop the reaction. Next, 80 μL of a 0.2 M aqueous sodium carbonate solution and 200 μL of an acetone solution of 3.3 mg/mL Dabsyl chloride were each added to 20 μL of the thus obtained reaction solution, followed by 10 minutes of reaction at 70° C. Acetic acid (20 μL) was added to 50 μL of the reaction solution and then the solution was stirred. The resultant was analyzed by high performance liquid chromatography under the following conditions and thus the quantity of dabsylated glutamic acid was determined. In addition, the activity of an enzyme used in this assay was adjusted so that the amount of glutamic acid generated was 2.8 mM or less.
(§2) [Composition of Substrate Solution]
[High Performance Liquid Chromatography Analysis Conditions] • Column: YMC-Pack Pro C18 RS (YMC) • Eluent: acetonitrile/45 mM acetate buffer (pH 4.1)=35/65 (volume ratio) • Flow rate: 0.9 mL/minute • Detection: 254 nm • Column temperature: 30° C.

TAT [3] = test: Specificity to amino group donor (dabsylated glutamic acid, HPLC); assay type: biochemical, Arthrobacter sp. KNK04-25; details: amino group donor 14 mM, 2-ketoglutaric acid 14 mM; for activity of TAT for amino group donor (in words): pH 7.0; for Relative activity: pH 7.0, 30° C., 60 minutes, benzylamine = 100
Procedure: The substrate specificity of TAT to amino group donors was examined using the cell-free extracts obtained in Example 5.
as §1, with “solution (100 μL, each) so” for “solution (100 μL each) so”, “C., 20 μL, of 3N” for “C., 20 μL of 3N”, “Next, 80 μL, of a” for “Next, 80 μL of a”, “and 200 μL, of an” for “and 200 μL of an”, “to 20 μL, of the” for “to 20 μL of the”, “to 50 μL, of the” for “to 50 μL of the”
as §2
[High Performance Liquid Chromatography Analysis Conditions] • Column: Cosmosil 5C8-MS (NACALAI TESQUE, INC.) • Eluent: distilled water 2000 mL/acetonitrile 500 mL/methanol 500 ml/KH2PO4 6.1 g/H3PO4 2.5 g • Flow rate: 1 mL/minute • Detection: 254 nm • Column temperature: 30° C.

TAT [4] = test: Specificity 3 to amino group donor with 1-benzyl-3-pyrrolidinone as receptor; assay type: biochemical, Arthrobacter sp. KNK04-25; details: amino group donor 290 mM, 1-benzyl-3-pyrrolidinone 29 mM; for Relative activity: pH 7.0, 30° C., 90 minutes, L-alanine = 100
Procedure: With the use of the cell-free extracts obtained in Example 5, the substrate specificity of TAT to an amino group donor was examined. Each reagent was added to enzyme solutions (200 μL each) so that the final concentrations were as specified in the following composition of the substrate solution. The volume of each reaction solution was adjusted to 400 μl with 0.1 M potassium phosphate buffer (pH 7.0). After 90 minutes of reaction at 30° C., 15 μL of 6N hydrochloric acid was added to stop the reaction. The thus obtained reaction solutions were analyzed by high performance liquid chromatography under the following conditions.
as §2
(§3) [High Performance Liquid Chromatography Quantitative Analysis Conditions] <Quantitative Analysis> • Column: Finepak SIL C18-T (JASCO Corporation) • Eluent: distilled water 945 mL/acetonitrile 555 mL/KH2PO4 7.5 g/SDS 2.16 g (adjusted with H3PO4 to pH 3.6) • Flow rate: 1 mL/minute • Detection: 254 nm • Column temperature: 40° C. <Analysis of Optical Purity>
Each reaction solution was treated with an appropriate amount of sodium carbonate so that it became basic, derivatized with dinitrobenzoyl chloride, and then analyzed under the following conditions. • Column: Chiralcel IA (Daicel Corporation) • Eluent: hexane/ethanol/diethylamine/acetonitrile=800/200/1/5 (volume ratio) • Flow rate: 0.8 mL/minute • Detection: 254 nm • Column temperature: 30° C.

[5] = Activity for 1-benzyl-3-pyrrolidinone and optical purity of generated (S)-1-benzyl-3-aminopyrrolidine; assay type: biochemical; details: 57 mM 1-benzyl-3-pyrrolidinone, 57 mM (S)-1-phenethylamine, pH 7.0, 30° C., 2 hours, cell-free extract
Procedure: (Method for Determination of Activity for 1-benzyl-3-pyrrolidinone and Method for Measurement of Optical Purity of Generated (S)-1-benzyl-3-aminopyrrolidine)
Activity to catalyze transamination by acting on optically active (S)-1-phenethylamine and 1-benzyl-3-pyrrolidinone, so as to generate acetophenone and (S)-1-benzyl-3-aminopyrrolidine was examined. Each reagent was added to each cell-free extract obtained in Example 5 so that the final concentrations were as specified in the following composition of the substrate solution. After 2 hours of reaction at 30° C., the reaction solution was analyzed by HPLC under the following conditions.
as §2
as §3, with “Chromatography” for “Chromatography Quantitative”, “Purity> […]” for “Purity>”

[6] = amino group receptor 14 mM, (S)-1-phenethylamine 14 mM, pH 7.0, 30° C., 60 minutes, 2-ketoglutaric acid = 100

CC(=O)CCO [4-hydroxy butane-2-one] gave a Relative activity (TAT [1]; […], 2-ketoglutaric acid = 100) of 0%.

With NCCCCN [Putrescine·2HCl] the “activity of the polypeptide for amino group donor (in words)” value (TAT [2]) was “did not exhibit activity” and the Relative activity (TAT [2]) was 0%.

In the case of O=C(O)CC(=O)C(=O)O [Oxalacetic acid], the Relative activity (TAT [1]; […], 2-ketoglutaric acid = 100) is reported as 4%.

In the case of N#CCC(=O)c1ccccc1 [α-cyanoacetophenone], the Relative activity (TAT [1]; […], 2-ketoglutaric acid = 100) is reported as 0%.

For CCCC(=O)C(=O)O [2-keto-n-valeric acid], the Relative activity (TAT [1]; [6]) was 3%.

In the case of NCCCCC(=O)O [5-aminovaleric acid], the “activity of the polypeptide for amino group donor (in words)” value (TAT [2]) is reported as “did not exhibit activity” and the Relative activity (TAT [2]) is reported as 0%.

CCOC(=O)CC(C)=O [Ethyl acetoacetate] gave a Relative activity (TAT [1]; […], 2-ketoglutaric acid = 100) of 2%.

Molecule CCC(C)=O [2-butanone] has a Relative activity (TAT [1]; […], 2-ketoglutaric acid = 100) of 0%.

In the case of CCCC(=O)CC(=O)OC [Methyl 3-oxohexanoate], the Relative activity (TAT [1]; […], 2-ketoglutaric acid = 100) is reported as 4%.

In the case of CCC(=O)C(=O)O [2-ketobutyric acid], the Relative activity (TAT [1]; […], 2-ketoglutaric acid = 100) is reported as 5%.

In the case of Cl.NCCCC[C@H](N)C(=O)O [L-lysine·HCl], the “activity of the polypeptide for amino group donor (in words)” value (TAT [2]) is reported as “did not exhibit activity” and the Relative activity (TAT [2]) is reported as 0%.

For COc1ccc2c(c1)CC(=O)CC2 [7-methoxy-2-tetralone], the Relative activity (TAT [1]; […], 2-ketoglutaric acid = 100) was 0%.

In the case of CCC(C)N (racemic) [±2-butylamine], the “activity of TAT for amino group donor (in words)” value (TAT [3]) is reported as “exhibited activity” and the Relative activity (TAT [3]) is reported as 7%.

CC(C)=O [Acetone] showed a Relative activity (TAT [1]; […], 2-ketoglutaric acid = 100) of 0%.

For CCC(=O)CC(=O)OC [Methyl 3-oxovalerate], the Relative activity (TAT [1]; […], 2-ketoglutaric acid = 100) was 4%.

With N[C@@H](CCC(=O)O)C(=O)O [L-glutamic acid] the “activity of TAT for amino group donor compared with L-alanine (in words)” value (TAT [4]) was “higher activity” and the Relative activity (TAT [4]) was 1650%.

O=C(O)C(=O)Cc1ccccc1 [Phenylpyruvic acid] gave a Relative activity (TAT [1]; […], 2-ketoglutaric acid = 100) of 8%.

O=C1CCN(Cc2ccccc2)C1 [1-benzyl-3-pyrrolidinone] gave a Relative activity (TAT [1]; […], 2-ketoglutaric acid = 100) of 20%.

In the case of CCCCC(C)=O [2-hexanone], the Relative activity (TAT [1]; […], 2-ketoglutaric acid = 100) is reported as 4%.

In the case of O=C(O)CCC(=O)C(=O)O [2-ketoglutaric acid], the “activity of the polypeptide for amino group receptor (in words)” value (TAT [1]; amino group receptor 14 mM, (S)-1-phenethylamine 14 mM) is reported as “high activity” and the Relative activity (TAT [1]; [6]) is reported as 100%.

With O=C1CCc2ccccc2C1 [2-tetralone] the Relative activity (TAT [1]; […], 2-ketoglutaric acid = 100) was 1%.

For CCCC=O [Butylaldehyde], the Relative activity (TAT [1]; [6]) was 6%.

CCCCC(=O)CC [3-heptanone] gave a Relative activity (TAT [1]; […], 2-ketoglutaric acid = 100) of 5%.

O=C1CN2CCC1CC2 [Quinuclidinone] showed a Relative activity (TAT [1]; pH 7) of 0%.

With NCCCC(=O)O [4-aminobutyric acid] the “activity of the polypeptide for amino group donor (in words)” value (TAT [2]) was “did not exhibit activity” and the Relative activity (TAT [2]) was 0%.

In the case of CCCCN [n-butylamine], the “activity of TAT for amino group donor (in words)” value (TAT [3]) is reported as “exhibited activity” and the Relative activity (TAT [3]) is reported as 4%.

O=C1CCCc2ccccc21 [1-tetralone] gave a Relative activity (TAT [1]; […], 2-ketoglutaric acid = 100) of 1%.

With CC(=O)C(=O)O [Pyruvic acid] the “activity of the polypeptide for amino group receptor (in words)” value (TAT [1]) was “exhibited activity” and the Relative activity (TAT [1]; […], 2-ketoglutaric acid = 100) was 10%.

Work on CCCC(C)=O [2-pentanone] yielded a Relative activity (TAT [1]; […], 2-ketoglutaric acid = 100) of 1%.

With NCCCCCC(=O)O [6-aminocaproic acid] the “activity of the polypeptide for amino group donor (in words)” value (TAT [2]) was “did not exhibit activity” and the Relative activity (TAT [2]) was 0%.

For NCc1ccccc1 [Benzylamine], the “activity of TAT for amino group donor (in words)” value (TAT [3]) was “exhibited activity” and the Relative activity (TAT [3]) was 100%.

In the case of O=CC(=O)O [Glyoxalic acid], the “activity of the polypeptide for amino group receptor (in words)” value (TAT [1]) is reported as “exhibited activity” and the Relative activity (TAT [1]; […], 2-ketoglutaric acid = 100) is reported as 40%.

In the case of O=C(Cc1ccccc1)c1ccccc1 [Benzyl phenyl ketone], the Relative activity (TAT [1]; [6]) is reported as 0%.

In the case of Cl.NCCC(N)C(=O)O (racemic) [±2,4-diaminobutyric acid·HCl], the “activity of the polypeptide for amino group donor (in words)” value (TAT [2]) is reported as “did not exhibit activity” and the Relative activity (TAT [2]) is reported as 0%.

CCC(=O)CC#N [3-oxopentanenitrile] showed a Relative activity (TAT [1]; […], 2-ketoglutaric acid = 100) of 0%.

C[C@H](N)C(=O)O [L-alanine] showed a Relative activity (TAT [4]) of 100%.

CCCCCC(C)=O [2-heptanone] gave a Relative activity (TAT [1]; […], 2-ketoglutaric acid = 100) of 3%.

Work on C[C@H](N)c1ccccc1 [(S)-α-phenethylamine] yielded a Relative activity (TAT [2]) of 100%.

In the case of CCC(=O)CC [3-pentanone], the Relative activity (TAT [1]; […], 2-ketoglutaric acid = 100) is reported as 1%.

In the case of NCCC(=O)O [β-alanine], the “activity of the polypeptide for amino group donor (in words)” value (TAT [2]) is reported as “did not exhibit activity” and the Relative activity (TAT [2]) is reported as 0%.

With O=Cc1ccccc1 [Benzaldehyde] the Relative activity (TAT [1]; […], 2-ketoglutaric acid = 100) was 70%.

With CC(=O)c1ccccn1 [2-acetylpyridine] the Relative activity (TAT [1]; […], 2-ketoglutaric acid = 100) was 60%.

B1: TAT: polypeptide having transamination activity from Arthrobacter sp. KNK04-25; amino acid sequence SEQ ID NO: 1 (protein, listed as Arthrobacter sp.)
chain: MSAITLESSLATFTRRFDVSAKLTELGKEVVPGGYSRNSFNFGPHAIYVESGDGAYISTVEGHRLLDLNNNFTVNVLGHNHPSVQRTLRGSIETGVSFGNPVALETELAQLLVERIPSIERVQFSCSASESCMSAVRVARAFTGRTKIAKFEGGYHGFTDPLQVSWHPDHDGDCGPDDAPKAIPDSGGIPAEDVANVVVLTQNDGEGTERILRAHASEIACVIVELESASGGLVTLEQDYVESLRELTSELGIVLIFDETVTLRAGYQGMQGDYGVAPDLTVMGKIIGGGFPLGAVGGSAEIMSVLESGLVSISGTHHGHKIALAAGISTMRELTQGAFDRLNGMATRVMEELNDWSSQRGSSFAVYGKGISHLAYGFMREPGLSIRTHRDYWRNFDGTGTQICSLELANRGFFPVARGDFSLSLPMSDDDITAFVETTKEIVTGIES
For B1, the “conversion rate to (S)-1-benzyl-3-aminopyrrolidine” value [5] was 100% and the “optical purity of generated (S)-1-benzyl-3-aminopyrrolidine” value [5] was 100 % e.e.
